Results from ChEMBL document CHEMBL5030561, “Discovery of novel aminosaccharide-based sulfonamide derivatives as potential carbonic anhydrase II inhibitors” (Bioorg Med Chem Lett, 2021).
pIC50: −log10 of the molar value.

Tests used:
[1] = Cytotoxicity against HCEC cells assessed as cell viability at 1% by MTT assay relative to control; type: cell-based; details: human, read-out: Activity
[2] = Solubility of compound in water; type: physicochemical; details: buffer
Carbonic anhydrase 9 = Carbonic anhydrase 9 (Homo sapiens, UniProt Q16790); assay: Inhibition of recombinant human CA9 using 4-nitrophenylacetate as substrate by esterase assay
[3] = Cytotoxicity against HCEC cells assessed as cell viability at 2 % by MTT assay relative to control; type: cell-based; details: human, read-out: Activity
in vitro [4] = details: mouse, liver microsomes
Description: Metabolic stability in mouse liver microsomes assessed as clearance

in vitro [5] = details: mouse, liver microsomes; remark: listed apart in the source
Description: Metabolic stability in mouse liver microsomes assessed as half-life

Carbonic anhydrase 2 = Carbonic anhydrase 2 (Homo sapiens, UniProt P00918)
Description: Inhibition of recombinant human CA2 using 4-nitrophenylacetate as substrate by esterase assay

Carbonic anhydrase 1 = Carbonic anhydrase 1 (Homo sapiens, UniProt P00915); assay: Inhibition of recombinant human CA1 using 4-nitrophenylacetate as substrate by esterase assay
Homo sapiens [6] = species: Homo sapiens; assay: Selectivity ratio of IC50 for inhibition of recombinant human CA9 to IC50 for inhibition of recombinant CA2 using 4-nitrophenylacetate as substrate by esterase assay
Homo sapiens [7] = species: Homo sapiens; assay: Selectivity ratio of IC50 for inhibition of recombinant human CA1 to IC50 for inhibition of recombinant human CA2 using 4-nitrophenylacetate as substrate by esterase assay

Carbonic anhydrase 1, sequence (P00915 whole entry): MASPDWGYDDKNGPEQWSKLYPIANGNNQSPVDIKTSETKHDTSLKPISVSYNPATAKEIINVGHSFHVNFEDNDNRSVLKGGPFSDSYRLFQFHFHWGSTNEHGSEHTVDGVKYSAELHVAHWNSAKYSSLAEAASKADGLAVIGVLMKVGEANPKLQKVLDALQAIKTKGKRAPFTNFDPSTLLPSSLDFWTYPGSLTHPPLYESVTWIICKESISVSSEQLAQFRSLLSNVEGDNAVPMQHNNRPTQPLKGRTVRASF

| Compound | solubility [2] [%] | pIC50 (Carbonic anhydrase 9) | CLint scaled (in vitro [4]) [L/h/kg] | half-life (in vitro [5]) [h] | pIC50 (Carbonic anhydrase 2) | pIC50 (Carbonic anhydrase 1) | Selectivity ratio (Homo sapiens [6]) | Selectivity ratio (Homo sapiens [7]) | viability at 1 % [1] [%] | viability at 2 % [3] [%] |
| --- | --- | --- | --- | --- | --- | --- | --- | --- | --- | --- |
| O=C(O)Cc1ccccc1Nc1c(Cl)cccc1Cl [DICLOFENAC] |  |  | 8.24 | 0.667 |  |  |  |  |  |  |
| CCCO[C@@H]1O[C@H](CNC(=O)c2ccc(S(N)(=O)=O)cc2)[C@@H](O)[C@H](O)[C@@H]1O | 2.1 | 6.59 | 0.0852 | 64.5 |  |  |  |  | 76 | 71 |
| CCCO[C@@H]1O[C@H](CNC(=O)c2ccc(S(N)(=O)=O)cc2)[C@H](O)[C@H](O)[C@H]1O | 2.2 | 6.66 | 0.0828 | 66.4 |  |  |  |  | 76 | 71 |
| CCCO[C@@H]1O[C@H](CNC(=O)c2ccc(S(N)(=O)=O)cc2)[C@@H](O)[C@H](O)[C@H]1N | 2.2 | 6.54 | 0.0852 | 64.4 |  |  |  |  | 76 | 71 |
| CCO[C@@H]1O[C@H](CNC(=O)c2ccc(S(N)(=O)=O)cc2)[C@@H](O)[C@H](O)[C@@H]1O | 2 | 6.70 | 0.0888 | 61.6 |  |  |  |  | 76 | 71 |
| CCN[C@H]1CN(CCCOC)S(=O)(=O)c2sc(S(N)(=O)=O)cc21 [BRINZOLAMIDE] | 0.05 |  |  |  |  |  |  |  |  |  |
| CCO[C@@H]1O[C@H](CNC(=O)c2ccc(S(N)(=O)=O)cc2)[C@@H](O)[C@H](O)[C@H]1N | 2.3 | 6.66 | 0.0936 | 58.6 |  |  |  |  | 76 | 71 |
| CC(=O)Nc1nnc(S(N)(=O)=O)s1 [ACETAZOLAMIDE] | 0.21 |  |  |  |  |  |  |  | 40 | 25 |
| CO[C@@H]1O[C@H](CNC(=O)c2ccc(S(N)(=O)=O)cc2)[C@H](O)[C@H](O)[C@H]1O | 2.1 | 6.70 | 0.0912 | 60.4 | 7.22 | 5.57 | 3.3 | 45 | 76 | 71 |
| CCN[C@H]1C[C@H](C)S(=O)(=O)c2sc(S(N)(=O)=O)cc21 [DORZOLAMIDE] | 0.67 |  |  |  |  |  |  |  |  |  |

The remaining compounds from weak to strong by pIC50 (Carbonic anhydrase 9), led by results:

| solubility [2] [%] | pIC50 (Carbonic anhydrase 9) | CLint scaled (in vitro [4]) [L/h/kg] | half-life (in vitro [5]) [h] | pIC50 (Carbonic anhydrase 2) | pIC50 (Carbonic anhydrase 1) | Selectivity ratio (Homo sapiens [6]) | Selectivity ratio (Homo sapiens [7]) | Compound | viability at 1 % [1] [%] | viability at 2 % [3] [%] |
| --- | --- | --- | --- | --- | --- | --- | --- | --- | --- | --- |
| 2.5 | 6.72 | 0.0984 | 55.8 | 6.92 | 5.64 | 1.6 | 19 | CO[C@@H]1O[C@H](CNC(=O)c2ccc(S(N)(=O)=O)cc2)[C@@H](O)[C@H](O)[C@H]1N | 76 | 71 |
| 2.2 | 6.72 | 0.0924 | 59.5 |  |  |  |  | CCO[C@@H]1O[C@H](CNC(=O)c2ccc(S(N)(=O)=O)cc2)[C@@H](O)[C@H](O)[C@H]1O | 76 | 71 |
| 2.1 | 6.74 | 0.09 | 61.1 |  |  |  |  | CCO[C@@H]1O[C@H](CNC(=O)c2ccc(S(N)(=O)=O)cc2)[C@H](O)[C@H](O)[C@H]1O | 76 | 71 |
| 2.3 | 6.77 | 0.096 | 57.2 | 7.15 | 5.54 | 2.4 | 41 | CO[C@@H]1O[C@H](CNC(=O)c2ccc(S(N)(=O)=O)cc2)[C@@H](O)[C@H](O)[C@@H]1O | 76 | 71 |
| 2.1 | 6.80 | 0.0918 | 59.9 |  |  |  |  | CCCO[C@@H]1O[C@H](CNC(=O)c2ccc(S(N)(=O)=O)cc2)[C@@H](O)[C@H](O)[C@H]1O | 76 | 71 |
| 2.5 | 6.82 | 0.0936 | 58.6 | 7.00 | 5.70 | 1.5 | 20 | CO[C@@H]1O[C@H](CNC(=O)c2ccc(S(N)(=O)=O)cc2)[C@@H](O)[C@H](O)[C@H]1O | 76 | 71 |
